Measured values published in US12486228B2, “N-substituted indoles and use as allosteric modulators of cannabinoid receptors” (priority 2018, dated 2025).

Experiments:
[1] = test system: normotensive C57Bl/6J mice; details: 0.2% GAT1102 combined with subthreshold 0.25% WIN55,212-2, topical, at 6 and 12 hrs, n=5, P<0.05
Experimental: (§1) Normotensive C57Bl/6J mice and Sh3pxd2b mice were obtained from Jackson Laboratory (Bar Harbor, Maine). The Sh3pxd2b mice were bred in house, and their progenies with abnormal phenotypical morphology, identified as a nee mice, were used for experiments.
(§2) Drug was administered topically (5 μl/eye) to the right eyes, while the left eyes received vehicle control (2% DMSO+4% Tween-20 in Tocrisolve; 5 μl).
(§3) Mice were anesthetized with the isoflurane (3% induction, 1.5% maintenance). The intraocular pressure (TOP) was measured with a handheld rebound tonometer (Tonolab, Icare, Finland), calibrated to mouse. Ten recordings were taken for each eye and then averaged. The IOP readings were taken at time 0 (baseline), 1, 6 and 12 hrs after the drug/vehicle administration. All the measurements were taken at the same time of the day, in order to minimize variability related to diurnal changes in IOP.
(§4) Data was analyzed by GraphPad version 6.0 (GraphPad Software, Inc., La Jolla, CA). Paired t-tests were used to compare between eyes of the same animal. A P value of <0.05 was considered significant. […] Values are represented as a change in IOP from the baseline (time 0).

[2] = test system: ocular hypertensive nee mice; details: GAT1102 0.2% alone, topical, at 1 and 12 hrs, n=6, P<0.05
Experimental: as §1, §2, §3, §4

[3] = test system: excitatory postsynaptic currents (EPSCs)

O=C(O)CCC(c1ccccc1)c1cn(-c2ccccc2)c2ccccc12 (stereo not shown) [GAT1102, 4-Phenyl-4-(1-phenyl-1H-indol-3-yl)butanoic acid]
IOP compared to vehicle [1]: significantly lower
IOP change [2]: significantly decreased IOP
agonist properties (direct inhibition of EPSCs) ([3]; 1 μM GAT1102): exhibited agonist properties in some cells
PAM effect on depolarization-induced suppression of excitation (DSE) ([3]; slowing recovery for DSE, in most cases occluded by direct inhibition): some evidence of a modest GAT1102 PAM effect
